A short description of data set [1]: Blood glucose concentration after 2 l of beverage in overnight-fasted male subjects. In kind it is in vivo, human. Conditions: 8 fasting male subjects; 2 l consumed between -120 and -40 min; FIG. 2. The method, then:
2 l of each beverage were consumed between −120 and −40 min.
After an overnight fast, each subject consumed 2 l of one solution (between −120 min and −40 min in FIG. 1). All subjects had to ingest all types of solution, however in random order. Simultaneously, blood samples were taken and analyzed for plasma glucose and haemoglobin concentration as well as haematocrit. RER measurements confirmed that all subjects were in a fasting state.

For data set [2] the following is noted: large doses; cited from earlier work.
For data set [3] the following is noted: cited from earlier work.
The nature of data set [4]: Hydration effect of glycerol solutions by concentration. The format is in vivo, human. To be noted: also printed as 18 g/l.

The structures appear in SMILES notation. Entries after “also recorded” stand apart in the source; their conditions may differ.

Regarding `OCC(O)CO` [glycerol, propane-1,2,3-triol], the Blood glucose concentration entry in data set [1] is on record as “does not increase blood glucose levels; also recorded: remained unaffected”. Further, the Toxicity entry in data set [2] is recorded as “non-toxic”. Besides, the Hepatic glucose production entry in data set [3] (compared with fasting control conditions without exogenous glycerol load) is listed as “does not increase hepatic glucose production”. Further, the Plasma glucose concentrations result in data set [3] (healthy fasting subjects, glycerol supplementation) was “does not increase plasma glucose concentrations”. The “Concentration at which appreciable hydration effects are seen” value in data set [4] was “above 0.2 mol/l”.

The values are drawn from patent US20110112014A1 (priority 2008, published 2011).
